What was measured:
[1] = tested on: NCI-H1975 non-small cell lung cancer; assay: In vivo efficacy test of NCI-H1975 non-small cell lung cancer (combination with osimertinib); set-up: species or system mice; details: 1 mg/kg, QD
Method: NCI-H1975 tumor cells were cultured in an incubator at 37°C and 5% CO2 using medium containing inactivated RPMI 1640 + 10% FBS. After reaching a confluency rate of 80 to 90%, the cells were passaged by subculturing. After one week of adaptive feeding in mice, NCI-H1975 cells in logarithmic phase were inoculated subcutaneously into the right flank of mice at a concentration of 5 × 10^6/100 µL. Tumor growth was regularly monitored until the tumors reached an average volume of 100 to 150 mm^3. […] Tumor size and animal weight were measured and recorded before and during the administration process. The differences in tumor size between the model group and administration group were compared to determine the efficacy.

[2] = tested on: ERK phosphorylation level in DLD-1 cells; assay: Inhibition of ERK phosphorylation level in DLD-1 cells (intracellular western blot); format: cell-based; details: Homo sapiens
Method: Intracellular western blot quantitative analysis was used to detect the inhibitory level of compounds on ERK phosphorylation in DLD-1 cells.
DLD-1 cells (ATCC, CCL-221) were seeded in a T75 culture flask at 2.5 × 10^6 cells/flask, and cultured in a RPMI 1640 medium containing 10% FBS for 2 days. On day 3, the cells were seeded on a 384-well plate, and cultured overnight at 37°C, 5% CO2. After overnight culture, the plate was added with serially diluted compounds (the final content of DMSO was 0.5%), the negative group was added with DMSO, and incubated in a 37°C, 5% CO2 incubator.
The cells were fixed, washed once with PBS, treated to disrupt membranes, and blocked at room temperature for 1 h. The blocking solution was removed. The plate was added with primary antibody (CST, Cat. No. #4370S), and incubated overnight at 4°C. The plate was washed 3 times with PBST (PBS solution added with 0.05% Tween-20), and soaked for 2 min each time. The plate was added with secondary antibody (LI-COR, Cat. No. 926-32211), and incubated at room temperature in the dark. The plate was washed 3 times with PBST, and soaked for 2 min each time. The plate was centrifuged at 1000 rpm for 1 min, scanned on a two-color infrared laser imaging system (Odyssey® CLX) to read the signal. Relative signal = 800-channel signal values/700-channel signal values. […]
(§1) IC50 values were calculated using Graphpad 5 software.

[3] = Human liver microsome stability test; format: in vitro ADME; details: human liver microsomes, incubation for 30 min, 37°C
Method: The human liver microsome stability test was performed by incubating the compound and human liver microsomes in vitro. First, the compound to be tested was prepared into a 10 mM stock solution in DMSO solvent, and then the compound was diluted to 0.5 mM with acetonitrile. Human liver microsomes (Corning) were diluted with PBS into a microsome/buffer solution, and the solution was used to dilute 0.5 mM compound into a working solution, in which the concentration of the compound was 1.5 µM, and the concentration of human liver microsomes was 0.75 mg/mL. A deep-well plate was taken, 30 µL of the working solution was added per well, and then 15 µL of pre-heated 6 mM NADPH solution was added thereto to initiate a reaction, and the reaction was incubated at 37°C. At 0, 5, 15, 30, and 45 min of the incubation, 135 µL of acetonitrile was added to the corresponding wells to terminate the reaction. After the reaction was terminated with acetonitrile at the last time point of 45 min, the deep-well plate was vortexed for 10 min (600 rpm/min), and then centrifuged for 15 min. After centrifugation, the supernatant was collected, and added with purified water in a ratio of 1:1 to perform LC-MS/MS detection. A ratio of a peak area of compound to a peak area of internal standard at each time point was obtained, and the peak area ratios of the compound at 5, 15, 30, and 45 min were compared with the peak area ratio at 0 min to calculate the remaining percentage of the compound at each time point. T1/2 was calculated by using GraphPad 5 software.

H358 cells = assay: Inhibition of 3D cell proliferation (3D CellTiter-Glo); format: cell-based; details: Homo sapiens, NCI-H358, 168 h; 3D cell proliferation in H358 cells, 7 days culture, 3D CellTiter-Glo
Method: H358 cells were seeded in a T75 culture flask, and cultured in a RPMI 1640 medium containing 10% FBS for 2 days for subsequent experiments in which the cells would be cultured or seeded on a 384-well plate.
On day 1, the cells were seeded on the 384-well plate, with 40 µL of medium added per well and serially diluted compounds or DMSO added per well, and an additional well without seeded cells but with medium was set up as a blank control. After culture at 37°C, 5% CO2 for 7 days, the plate was added with 3D CellTiter-Glo reagent (Promega, Cat. No. G9683) on day 8, shaken at 320 rpm for 20 min, and left at room temperature for 2 h. Luminescence signals were read on a multifunctional microplate reader. Cell viability inhibition rate was calculated as: [formula]
as §1

[4] = Solid state stability (XRPD and HPLC); format: physicochemical; details: for HPLC results Purity (area%) / Crystal form: listed as Crystal form A of compound of formula I
Method: The purity test, dynamic solubility test, and stability test in the assay were measured with an Agilent 1260 high-performance liquid chromatograph, and the salt formation molar ratio of ions was tested by ion chromatography, and the analytical conditions are shown in Table 5 and Table 6.
Table 56 Summary of solid state stability evaluation

[5] = Influence of vacuum drying conditions on crystal form A (XRPD, HPLC purity); format: physicochemical
Method: In order to evaluate the influence of the drying conditions on the crystal form A of the compound of formula I, the changes of the sample before and after vacuum drying of the crystal form A of the compound of formula I under the condition of 60°C/80°C for 4 hours were respectively investigated. The XRPD, ^1H NMR, and HPLC purity of the dried sample were tested. […]

[6] = Hygroscopicity by dynamic vapor sorption (DVS); format: physicochemical; details: 25°C
Method: The dynamic vapor sorption (DVS) curve was collected on DVS IntrInsic from SMS (surface measurement systems). The relative humidity at 25°C was corrected using the deliquescence points of LiCl, Mg(NO3)2, and KCl.
Starting from 0%RH or room humidity, the test collected the mass change percentage of the sample as the humidity changed (0%RH to 95%RH) under constant temperature conditions of 25°C.

[7] = Dynamic solubility in water, SGF, FaSSIF and FeSSIF; details: listed as Crystal form A of compound of formula I; for S: solubility: 37°C, solid feed concentration 10 mg/mL; for pH: pH value of the filtrate
Method: 100 mg of NaCl and 50 mg of Triton X-100 were weighed into a 50 mL volumetric flask, and purified water was added to complete dissolution. 816 µL of 1 M hydrochloric acid was added thereto, and the pH was adjusted to 1.8 with 1 M hydrochloric acid or 1 M NaOH solution. Purified water was added to make up to volume.
340 mg of anhydrous NaH2PO4, 42 mg of NaOH, and 620 mg of NaCl were weighed into a 100 mL volumetric flask. Purified water was added to complete dissolution. The pH was adjusted to 6.5 with 1 M hydrochloric acid or 1 M NaOH solution. Purified water was added to make up to volume. 110 mg of SIF powder was then weighed into a 50 mL volumetric flask, added with the above solution to complete dissolution and make up to volume.
About 90 mL of purified water was added to complete dissolution, and the pH was adjusted to 5.0 with 1 M hydrochloric acid or 1 M NaOH solution. Purified water was added to make up to volume. 560 mg of SIF powder was then weighed into a 50 mL volumetric flask, added with the above solution to complete dissolution and make up to volume.
Rotating mixing was carried out at 37°C at a solid feed concentration of 10 mg/mL (calculated as the compound of formula I). […] After sampling at each time point, the samples were centrifuged (10000 rpm) and filtered (0.45 µm PTFE filter head), and the HPLC concentration and pH value of the filtrate were measured.

For `C=CC(=O)Nc1cc(Nc2nccc(-c3cn(C)c4ccccc34)n2)c(OC)cc1N(C)CCN(C)C` [Osimertinib], the “Average tumor weight at the end of the treatment” value [1] was 3.2 g.
For `Cc1nc(N[C@H](C)c2cccc(C(F)(F)F)c2C)c2cn(C3(CF)CC3)c(=O)cc2n1` [Control compound 1, reference compound], the IC50 [2] was 72 nM, the “Remaining percentage (%) of compound after incubation for 30 min” value [3] was 70.2% and the IC50 (H358 cells) was 13 nM.
With `Cc1nc(N[C@H](C)c2cccc(S(F)(F)(F)(F)F)c2)c2cn(C3(CF)CC3)c(=O)cc2n1` the “HPLC results Purity (area%)” value ([4]; 25°C/60%RH/open, 1 week) was 97.13 area%, the “HPLC results Purity (area%)” value ([4]; 40°C/75%RH/open, 1 week) was 97.14 area% and the “HPLC results Purity (area%)” value ([4]; Onset) was 97.06 area%. The Crystal form ([4]; XRPD after 25°C/60%RH/open, 1 week) was “Crystal form A of compound of formula I”, the Crystal form ([4]; XRPD after 40°C/75%RH/open, 1 week) was “Crystal form A of compound of formula I” and the solid state stability ([4]; open, one week at 25°C/60% RH and 40°C/75% RH) was “good stability”. The “Area (%) of main peak (relative retention time 1.00) After vacuum drying at 60°C” value ([5]; vacuum drying at 60°C for 4 hours, onset 97.07) was 97.11%, the “change in HPLC purity before and after drying” value ([5]; vacuum drying at 60°C/80°C for 4 hours) was “no significant change in purity” and the “crystal form after vacuum drying (XRPD)” value ([5]; vacuum drying at 60°C/80°C for 4 hours, then 19°C/27% RH for 10-15 min) was “still the crystal form A of the compound of formula I”. For the same molecule, the “Area (%) of main peak (relative retention time 1.00) After vacuum drying at 80°C” value ([5]; vacuum drying at 80°C for 4 hours, onset 97.07) was 97.14%, the “DVS behaviour when higher than 10% RH” value ([6]; higher than 10% RH) was “absorb more moisture and gain more weight with the increase of humidity” and the “DVS behaviour when lower than 10% RH” value ([6]; lower than 10% RH) was “rapidly dehydrate”. The “S: solubility” value ([7]; FaSSIF, 1 hour, 60 min) was 210 µg/mL, the “S: solubility” value ([7]; FaSSIF, 4 hours, 240 min) was 80 µg/mL and the “S: solubility” value ([7]; FaSSIF, 24 hours, 1440 min) was 50 µg/mL. For the same molecule, the “S: solubility” value ([7]; FeSSIF, 1 hour, 60 min) was 2720 µg/mL, the “S: solubility” value ([7]; FeSSIF, 4 hours, 240 min) was 2880 µg/mL and the “S: solubility” value ([7]; FeSSIF, 24 hours, 1440 min) was 2740 µg/mL. The “S: solubility” value ([7]; H2O, 1 hour, 60 min) was 140 µg/mL, the “S: solubility” value ([7]; H2O, 4 hours, 240 min) was 110 µg/mL and the “S: solubility” value ([7]; H2O, 24 hours, 1440 min) was 110 µg/mL. The “S: solubility” value ([7]; SGF, 1 hour, 60 min) was 6840 µg/mL, the “S: solubility” value ([7]; SGF, 4 hours, 240 min) was 7670 µg/mL and the “S: solubility” value ([7]; SGF, 24 hours, 1440 min) was 7760 µg/mL. For the same molecule, the pH ([7]; FaSSIF, 1 hour) was 6.3, the pH ([7]; FaSSIF, 4 hours) was 6.3 and the pH ([7]; FaSSIF, 24 hours) was 6.4. The pH ([7]; FeSSIF, 1 hour) was 5.1, the pH ([7]; FeSSIF, 4 hours) was 5.1 and the pH ([7]; FeSSIF, 24 hours) was 5.1. For the same molecule, the pH ([7]; H2O, 1 hour) was 5.4, the pH ([7]; H2O, 4 hours) was 6.0 and the pH ([7]; H2O, 24 hours) was 5.8. For the same molecule, the pH ([7]; SGF, 1 hour) was 3.2, the pH ([7]; SGF, 4 hours) was 3.3 and the pH ([7]; SGF, 24 hours) was 3.2.

From patent EP4570800A1, “CRYSTAL FORM OF PYRIDINOPYRIMIDINONE COMPOUND, ACID SALT THEREOF, CRYSTAL FORM OF ACID SALT THEREOF, AND USE” (Wuhan Humanwell Innovative Drug Research and Development …, priority 2022, dated 2024)
